Blank lines part the entries; values can stand above or below the molecule they belong to.
Experiments:
Carbonic anhydrase 9 = Carbonic anhydrase 9 (Homo sapiens, UniProt Q16790)
[1] = Chemical stability of the compound in HEPES buffer assessed as compound remaining at 10 mg at pH 7.4 measured at 0 hr by HPLC method; format: physicochemical; details: read-out: Stability
[2] = Chemical stability of the compound in HEPES buffer assessed as compound remaining at 10 mg at pH 7.4 measured at 3 hrs by HPLC method; format: physicochemical; details: read-out: Stability
[3] = Chemical stability of the compound in HEPES buffer assessed as compound remaining at 10 mg at pH 7.4 measured at 5 hrs by HPLC method; format: physicochemical; details: read-out: Stability
[4] = Chemical stability of the compound in HEPES buffer assessed as compound remaining at 10 mg at pH 7.4 measured at 10 hrs by HPLC method; format: physicochemical; details: read-out: Stability
[5] = Chemical stability of the compound in HEPES buffer assessed as compound remaining at 10 mg at pH 7.4 measured at 24 hrs by HPLC method; format: physicochemical; details: read-out: Stability
Carbonic anhydrase 12 = Carbonic anhydrase 12 (Homo sapiens, UniProt O43570)
Sequence of Carbonic anhydrase 12 (O43570 whole entry): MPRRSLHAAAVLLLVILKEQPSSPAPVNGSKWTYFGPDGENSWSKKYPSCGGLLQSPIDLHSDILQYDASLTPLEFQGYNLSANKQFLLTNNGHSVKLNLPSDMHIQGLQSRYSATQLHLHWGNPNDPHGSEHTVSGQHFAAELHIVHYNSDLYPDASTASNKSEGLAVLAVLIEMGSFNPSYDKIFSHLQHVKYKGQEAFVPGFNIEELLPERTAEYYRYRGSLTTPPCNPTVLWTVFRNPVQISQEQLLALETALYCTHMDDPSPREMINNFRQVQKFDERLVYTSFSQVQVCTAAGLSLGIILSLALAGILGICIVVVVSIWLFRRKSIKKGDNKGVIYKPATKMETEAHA
Description: Inhibition of recombinant human transmembrane, tumor-associated form of carbonic anhydrase-12 preincubated for 15 mins by stopped flow CO2 hydration assay

Carbonic anhydrase 1 = Carbonic anhydrase 1 (Homo sapiens, UniProt P00915)
Sequence of Carbonic anhydrase 1 (P00915 whole entry): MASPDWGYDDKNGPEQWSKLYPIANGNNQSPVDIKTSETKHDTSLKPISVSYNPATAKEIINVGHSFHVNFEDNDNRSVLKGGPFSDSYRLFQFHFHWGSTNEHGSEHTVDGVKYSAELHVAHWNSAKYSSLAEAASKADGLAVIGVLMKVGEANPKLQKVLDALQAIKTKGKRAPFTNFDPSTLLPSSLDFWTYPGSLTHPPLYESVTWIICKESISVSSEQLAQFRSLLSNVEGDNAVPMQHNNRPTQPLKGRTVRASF
Description: Inhibition of recombinant human cytosolic form of carbonic anhydrase-1 preincubated for 15 mins by stopped flow CO2 hydration assay

Ki (Carbonic anhydrase 9): 4.3 nM
remaining at 0 h [1]: 100%
remaining at 3 h [2]: 100%
remaining at 5 h [3]: 100%
remaining at 10 h [4]: 100%
remaining at 24 h [5]: 100%
Ki (Carbonic anhydrase 12): 6.3 nM
Structure (SMILES): NS(=O)(=O)c1ccc(CCNCc2ccccc2)cc1

Ki (Carbonic anhydrase 9): 138 nM
Ki (Carbonic anhydrase 1): 393 nM
Ki (Carbonic anhydrase 12): 46.8 nM
Structure (SMILES): NS(=O)(=O)c1ccc(CC/N=C\c2ccccc2O)cc1

Ki (Carbonic anhydrase 9): 163 nM
Structure (SMILES): NS(=O)(=O)c1ccc(CC/N=C\c2cc(Br)cc(Br)c2O)cc1

Ki (Carbonic anhydrase 9): 220 nM
remaining at 0 h [1]: 100%
remaining at 3 h [2]: 100%
remaining at 5 h [3]: 89%
remaining at 10 h [4]: 51%
remaining at 24 h [5]: 14%
Structure (SMILES): NS(=O)(=O)c1ccc(CC/N=C\c2ccccc2)cc1

Ki (Carbonic anhydrase 9): 295 nM
Structure (SMILES): Cc1cccc(/C=N\CCc2ccc(S(N)(=O)=O)cc2)c1O

Ki (Carbonic anhydrase 9): 231 nM
remaining at 0 h [1]: 100%
remaining at 3 h [2]: 100%
remaining at 5 h [3]: 72%
remaining at 10 h [4]: 43%
remaining at 24 h [5]: 8%
Structure (SMILES): COc1ccc(/C=N\CCc2ccc(S(N)(=O)=O)cc2)cc1

Ki (Carbonic anhydrase 9): 187 nM
Structure (SMILES): NS(=O)(=O)c1ccc(CC/N=C\c2cc(Br)ccc2O)cc1

Ki (Carbonic anhydrase 9): 123 nM
Structure (SMILES): Cc1ccc(/C=N\CCc2ccc(S(N)(=O)=O)cc2)cc1

Ki (Carbonic anhydrase 9): 106 nM
Structure (SMILES): NS(=O)(=O)c1ccc(CC/N=C\c2cc(Cl)ccc2O)cc1

Ki (Carbonic anhydrase 9): 230 nM
Structure (SMILES): NS(=O)(=O)c1ccc(CC/N=C\c2ccc(OCc3ccccc3)cc2)cc1

Ki (Carbonic anhydrase 9): 190 nM
Structure (SMILES): NS(=O)(=O)c1ccc(CC/N=C\c2cc(Cl)cc(Cl)c2O)cc1

Ki (Carbonic anhydrase 9): 39.1 nM
Ki (Carbonic anhydrase 1): 453 nM
Ki (Carbonic anhydrase 12): 3120 nM
Structure (SMILES): CN(C)c1ccc(/C=N\CCc2ccc(S(N)(=O)=O)cc2)cc1

Structure (SMILES): NS(=O)(=O)c1ccc(CCNCc2ccccc2O)cc1
Ki (Carbonic anhydrase 9): 3.9 nM

Ki (Carbonic anhydrase 9): 4.1 nM
Structure (SMILES): NS(=O)(=O)c1ccc(CCNCc2cc(Br)cc(Br)c2O)cc1

Ki (Carbonic anhydrase 9): 3.7 nM
Structure (SMILES): Cc1cccc(CNCCc2ccc(S(N)(=O)=O)cc2)c1O

remaining at 0 h [1]: 100%
remaining at 3 h [2]: 100%
remaining at 5 h [3]: 100%
remaining at 10 h [4]: 100%
remaining at 24 h [5]: 100%
Ki (Carbonic anhydrase 1): 4.6 nM
Ki (Carbonic anhydrase 12): 37.7 nM
Structure (SMILES): COc1ccc(CNCCc2ccc(S(N)(=O)=O)cc2)cc1

Ki (Carbonic anhydrase 9): 4.3 nM
Structure (SMILES): NS(=O)(=O)c1ccc(CCNCc2cc(Br)ccc2O)cc1

Ki (Carbonic anhydrase 9): 10.2 nM
Structure (SMILES): Cc1ccc(CNCCc2ccc(S(N)(=O)=O)cc2)cc1

Ki (Carbonic anhydrase 9): 15.6 nM
Structure (SMILES): NS(=O)(=O)c1ccc(CCNCc2cc(Cl)ccc2O)cc1

Ki (Carbonic anhydrase 9): 2.9 nM
Structure (SMILES): NS(=O)(=O)c1ccc(CCNCc2ccc(OCc3ccccc3)cc2)cc1

Ki (Carbonic anhydrase 12): 3 nM
Structure (SMILES): CCN[C@H]1C[C@H](C)S(=O)(=O)c2sc(S(N)(=O)=O)cc21 [DORZOLAMIDE]
